Values of other authors as cited in patent US20050250788A1, “Aqueous outflow enhancement with vasodilated aqueous cavity” (priority 2004, published 2005).
Structures can show the parent of a compound that is named as a salt.

Key:
[1] = chronic, patients with essential hypertension
[2] = at low concentrations
[3] = test system: norepinephrine and dopamine neuronal reuptake
[4] = test system: adrenergic (alpha(1), alpha(2) and beta), cholinergic, GABA, dopaminergic, histaminergic, serotonergic (5-HT1A, 5-HT1B, 5-HT2) or benzodiazepine binding sites
[5] = placebo-controlled, normal volunteers
[6] = for area under the plasma concentration time curve / mean peak plasma concentration (C(max)): multiple oral once-daily doses of 200 mg
[7] = topical
[8] = not given; remark: listed apart in the source
[9] = not given; remark: listed apart in the source

Compound: C[C@H](CS)C(=O)N1CCC[C@H]1C(=O)O [captopril]
- decrease in mean arterial pressure compared with placebo baseline [1]: equivalent decreases

Compound: COc1ccccc1OCCNCC(O)c1ccc(C)c(S(N)(=O)=O)c1 (stereo not drawn) [5-[1-hydroxy-2-[2-(2-methoxyphenoxyl)ethylamino]ethyl]-2-methylbenzenesulfonamide]
- intraocular pressure reducing activity [2]: excellent intraocular pressure reducing activity

Compound: CN[C@H]1CC[C@@H](c2ccc(Cl)c(Cl)c2)c2ccccc21 [sertraline]
- effects on norepinephrine and dopamine neuronal reuptake [3]: only very weak effects
- affinity for binding sites [4]: no significant affinity
- psychomotor performance [5]: did not interfere with psychomotor performance
- sedation [5]: did not cause sedation
- plasma protein bound: Approximately 98%
- dose proportionality ([6]; clinical dose range of 50 to 200 mg/day): Linear dose proportionality
- area under the plasma concentration time curve [6]: 2800 ng·h/mL
- mean peak plasma concentration (C(max)) [6]: 190 ng/mL
- increase of bioavailability by food ([6]; oral, with food): about 40%
- average terminal elimination half-life ([6]; single or multiple oral once-daily doses of 50 to 400 mg/day): approximately 26 hours

Compound: cyclosporin-A
- post-surgical increases in intraocular pressure [7]: reduce post-surgical increases in intraocular pressure

Compound: CNC(=O)Oc1ccc2c(c1)[C@]1(C)CCN(C)[C@@H]1N2C [eserine]
- output of clear fluid after administration into a glaucomatous eye [8]: increase the output of clear fluid

Compound: CC(N/C(=N\C#N)Nc1ccncc1)C(C)(C)C (stereo not drawn) [pinacidil]
- decrease in mean arterial pressure compared with placebo baseline [1]: equivalent decreases

Compound: COc1cc2nc(N3CCN(C(=O)c4ccco4)CC3)nc(N)c2cc1OC [prazosin]
- decrease in mean arterial pressure compared with placebo baseline [1]: equivalent decreases

Compound: CN[C@H]1CC[C@@H](c2ccc(Cl)c(Cl)c2)c2ccccc21 [Sertraline hydrochloride, (1S-cis)-4-(3,4-dichlorophenyl)-1,2,3,4-tetrahydro-N-methyl-1-nanphthalenamine hydrochloride]
- solubility in ethanol ([9]; ethanol): sparingly soluble
- solubility in isopropyl alcohol ([9]; isopropyl alcohol): slightly soluble
- solubility in water ([9]; water): slightly soluble

Compound: N[C@H]1CC[C@@H](c2ccc(Cl)c(Cl)c2)c2ccccc21 [desmethylsertraline]
- elevation of plasma levels in the elderly ([6]; elderly, following multiple dosing): 3 fold
- half-life ([6]; metabolite, multiple oral once-daily doses of 200 mg sertraline): 65 h
- area under the plasma concentration time curve [6]: 2300 ng·h/mL
- mean peak plasma concentration (C(max)) [6]: 140 ng/mL

Compound: CC[C@@H]1C(=O)OC[C@@H]1Cc1cncn1C [Pilocarpine]
- output of clear fluid after administration into a glaucomatous eye [8]: increase the output of clear fluid
